14 compounds from patent US10093629B2, “Heterocyclic compounds and their use as retinoid-related orphan receptor (ROR) gamma-T inhibitors” (Takeda Pharmaceutical Company Limited, priority 2014, dated 2018) can be followed below.

Where two headings read alike, the source gives them in different places.

Test [1] deals with T1, RORγt (Homo sapiens, UniProt P51449).
T1 sequence (P51449 1-497 isoform P51449-2): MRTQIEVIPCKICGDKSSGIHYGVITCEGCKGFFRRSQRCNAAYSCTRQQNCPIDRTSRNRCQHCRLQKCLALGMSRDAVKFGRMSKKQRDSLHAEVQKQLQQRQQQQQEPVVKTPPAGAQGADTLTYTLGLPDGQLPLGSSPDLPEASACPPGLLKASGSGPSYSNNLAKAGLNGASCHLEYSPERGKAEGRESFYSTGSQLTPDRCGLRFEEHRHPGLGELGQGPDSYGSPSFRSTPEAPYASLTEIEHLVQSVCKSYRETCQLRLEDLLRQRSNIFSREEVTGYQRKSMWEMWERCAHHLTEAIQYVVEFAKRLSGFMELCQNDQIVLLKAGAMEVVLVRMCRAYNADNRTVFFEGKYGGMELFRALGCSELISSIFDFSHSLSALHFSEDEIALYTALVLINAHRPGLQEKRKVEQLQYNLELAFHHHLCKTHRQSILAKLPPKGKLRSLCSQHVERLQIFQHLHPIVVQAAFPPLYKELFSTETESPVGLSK
As to the kind of experiment: Jurkat reporter test (human IL-17 ROR response element luciferase, RORγt vector). The note with it: Jurkat cells; for inhibition at 3 µM: test compound 3 μM, read-out: luminescence level inhibitory rate at test compound 3 μM. In kind it is cell-based. Here is the method:
The Jurkat cells used for the reporter test were cultured in a culture medium (RPMI (Invitrogen), 10% FCS (AusGeneX), 100 U/mL penicillin, 100 μg/mL streptomycin). On the day of the test, 4×10^7 cells were recovered by a centrifugal operation (1000 rpm, 5 min.) and suspended in PBS (phosphate buffered saline) (Invitrogen). Thereafter, the cells were recovered again by a centrifugal operation, and suspended in 2 mL of R buffer (NEON transfection kit, Invitrogen). […] Gene transfer was performed by Electroporation apparatus (NEON, Invitrogen) under the conditions of pulse voltage 1350 V, interval 10 milliseconds, number of times 3. The cells after gene transfer were suspended in 40 mL of a reaction medium (RPMI, 10% Lipid reduced FCS (HyClone), 10 mM HEPES (pH 7.5), 100 U/mL penicillin, 100 μg/mL streptomycin, 5 μM lovastatin), and plated in a 96 well plate by 90 μL. A test compound diluted with the reaction medium was added by 10 μL, and the cells were cultured overnight in an incubator. Bright-Glo (Promega) was added by 100 μL, and the mixture was stirred at room temperature for 10 min, and the luminescence level was measured by Envision (PerkinElmer).

The target of test [2] is T1, RORγt. Description: RORγt binding test using fluorescent-labeled synthetic ligand (TR-FRET). Particulars: for inhibition at 1 µM: read-out: binding inhibitory rate of fluorescent-labeled synthetic ligand to RORγt at test compound 1 μM. Here is the method:
RORγt Binding Test using Fluorescent-Labeled Synthetic Ligand
The binding activity of the test compound to RORγt was measured by a time resolved fluorescence resonance energy transfer method (TR-FRET) utilizing histidine-tagged RORγt, fluorescent-labeled synthetic ligand and terbium-labeled anti-histidine tag antibody (Invitrogen). First, a test compound diluted with an assay buffer (20 mM Tris-HCl (pH 7.5), 100 mM NaCl, 1 mM DTT, 0.1% BSA) was added to a 384 well plate by 3 μL. Then, RORγt diluted with an assay buffer to 240 nM was added by 3 μL, after which fluorescent-labeled synthetic ligand diluted with the assay buffer to 12 μM was added by 3 μL, and the mixture was stood at room temperature for 20 min. Thereafter, a terbium-labeled anti-histidine tag antibody diluted with the assay buffer to 8 nM was added by 3 μL. The mixture was stood at room temperature for 20 min, and fluorescence intensity (excitation wavelength 320 nm, fluorescence wavelength 520 nm, delay time 100 microseconds) was measured by Envision (PerkinElmer).
A general note: In TR-FRET formats the signal depends on donor and acceptor labels being close together.

Test [3] addresses T1, RORγt. Description: Cofactor recruitment test (Alpha Screen, biotinylated SRC-1 peptide). It counts as biochemical. The note with it: for inhibition at 1 µM: read-out: signal value inhibitory rate at test compound 1 μM. The method, then: Cofactor Recruitment Test
Cofactor recruitment test was performed by Alpha Screen (Histidine Detection Kit, PerkinElmer) method. First, a test compound was diluted with an assay buffer (50 mM Tris-HCl (pH 7.5), 50 mM KCl, 1 mM DTT, 0.1% BSA) and added to a 384 well plate by 5 μL. […] The mixture was stood in a dark place for 1 hr, and the signal value was measured by Envision (PerkinElmer).

Turning to `COc1ccc2c(c1)CCN(C(=O)[C@H]1C[C@H](CC(=O)O)C1)[C@H]2C(=O)Nc1ccc([Si](C)(C)C)c(F)c1` [Example 34, (trans-3-(((1R)-1-((3-fluoro-4-(trimethylsilyl)phenyl)carbamoyl)-6-methoxy-3,4-dihydroisoquinolin-2(1H)-yl)carbonyl)cyclobutyl)acetic acid], the inhibition at 3 µM on RORγt [1] amounted to 100%. The inhibition at 1 µM on RORγt [2] is 102%; on RORγt [3], 88%.

Regarding `COc1ccc2c(n1)CCN(C(=O)[C@H]1C[C@@H](C(=O)OCc3ccccc3)C1)[C@H]2C(=O)Nc1cc(F)c2c(c1)CCC2(C)C` [Example 36, benzyl cis-3-(((5R)-5-((7-fluoro-1,1-dimethyl-2,3-dihydro-1H-inden-5-yl)carbamoyl)-2-methoxy-7,8-dihydro-1,6-naphthyridin-6(5H)-yl)carbonyl)cyclobutanecarboxylate], the inhibition at 3 µM on RORγt [1] (Jurkat) amounted to 102%. The inhibition at 1 µM stood at 102% at RORγt [2] (test compound 1 μM) and 72% at RORγt [3] (test compound 1 μM).

Take `COc1ccc2c(c1)CCN(C(=O)[C@H]1C[C@H](CC(=O)O)C1)[C@H]2C(=O)Nc1cc(F)c([Si](C)(C)C)c(F)c1` [Example 27, (trans-3-(((1R)-1-((3,5-difluoro-4-(trimethylsilyl)phenyl)carbamoyl)-6-methoxy-3,4-dihydroisoquinolin-2(1H)-yl)carbonyl)cyclobutyl)acetic acid]: the inhibition at 3 µM on RORγt [1] came out at 103%. The inhibition at 1 µM came to 102% on RORγt [2] and 91% at RORγt [3].

On to `COCc1ccc2c(c1)CCN(C(=O)[C@H]1C[C@@H](CC(=O)O)C1)[C@H]2C(=O)Nc1cc(F)c2c(c1)CCC2(C)C` [Example 40-A, monopotassium (cis-3-(((1R)-1-((7-fluoro-1,1-dimethyl-2,3-dihydro-1H-inden-5-yl)carbamoyl)-6-(methoxymethyl)-3,4-dihydroisoquinolin-2(1H)-yl)carbonyl)cyclobutyl)acetate acetonitrile solvate], for which the “luminescence level inhibitory rate at test compound 3 μM” value at RORγt [1] (3 µM) is reported as 104%. Besides, the “binding inhibitory rate of fluorescent-labeled synthetic ligand to RORγt at test compound 1 μM” value on RORγt [2] (test compound 1 μM, 1 µM) stood at 102%. Also, the “signal value inhibitory rate at test compound 1 μM” value on RORγt [3] (test compound 1 μM, 1 µM) was 87%.

Consider `COc1ccc2c(n1)CCN(C(=O)[C@H]1C[C@@H](CC(=O)OCc3oc(=O)oc3C)C1)[C@H]2C(=O)Nc1cc(F)c2c(c1)CCC2(C)C` [Example 38, (5-methyl-2-oxo-1,3-dioxol-4-yl)methyl (cis-3-(((5R)-5-((7-fluoro-1,1-dimethyl-2,3-dihydro-1H-inden-5-yl)carbamoyl)-2-methoxy-7,8-dihydro-1,6-naphthyridin-6(5H)-yl)carbonyl)cyclobutyl)acetate], for which, on RORγt [1] (Jurkat), the inhibition at 3 µM is 102%. In addition, the results for the inhibition at 1 µM at RORγt [2] (test compound 1 μM) and on RORγt [3] (test compound 1 μM) were 102% and 61%, respectively.

On to `COc1ccc2c(c1)CCN(C(=O)[C@H]1C[C@H](C(=O)O)C1)[C@H]2C(=O)Nc1cc(F)c([Si](C)(C)C)c(F)c1` [Example 12, trans-3-(((1R)-1-((3,5-difluoro-4-(trimethylsilyl)phenyl)carbamoyl)-6-methoxy-3,4-dihydroisoquinolin-2(1H)-yl)carbonyl)cyclobutanecarboxylic acid], for which, on RORγt [1], the inhibition at 3 µM came to 99%. Moreover, the inhibition at 1 µM on RORγt [2] amounted to 102%; at RORγt [3], 91%.

`COc1ccc2c(n1)CCN(C(=O)[C@@H]1C[C@H]1CC(=O)O)[C@H]2C(=O)Nc1cc(F)c([Si](C)(C)C)c(F)c1` [Example 14, ((1S,2R)-2-(((5R)-5-((3,5-difluoro-4-(trimethylsilyl)phenyl)carbamoyl)-2-methoxy-7,8-dihydro-1,6-naphthyridin-6(5H)-yl)carbonyl)cyclopropyl)acetic acid]: the inhibition at 3 µM at RORγt [1] was 100%. In addition, the inhibition at 1 µM at RORγt [2] is 101%; on RORγt [3] it was 86%.

With `CCOC(=O)C[C@H]1C[C@@H](C(=O)N2CCc3nc(OC)ccc3[C@@H]2C(=O)Nc2cc(F)c3c(c2)CCC3(C)C)C1` [Example 39, ethyl (cis-3-(((5R)-5-((7-fluoro-1,1-dimethyl-2,3-dihydro-1H-inden-5-yl)carbamoyl)-2-methoxy-7,8-dihydro-1,6-naphthyridin-6(5H)-yl)carbonyl)cyclobutyl)acetate], the inhibition at 3 µM on RORγt [1] (Jurkat) came out at 103%. In addition, the inhibition at 1 µM at RORγt [2] (test compound 1 μM) was determined as 101%; on RORγt [3] (test compound 1 μM), 63%.

Consider `COCC(C)(C)c1c(F)cc(NC(=O)[C@H]2c3ccc(OC)cc3CCN2C(=O)[C@H]2C[C@@H](CC(=O)O)C2)cc1F` [Example 35, (cis-3-(((1R)-1-((3,5-difluoro-4-(1-methoxy-2-methylpropan-2-yl)phenyl)carbamoyl)-6-methoxy-3,4-dihydroisoquinolin-2(1H)-yl)carbonyl)cyclobutyl)acetic acid], for which, at RORγt [1] (Jurkat), the inhibition at 3 µM is 99%. The inhibition at 1 µM on RORγt [2] (test compound 1 μM) is 102%; at RORγt [3] (test compound 1 μM), 83%.

Take `COc1ccc2c(n1)CCN(C(=O)[C@H]1C[C@@H](C(=O)OC)C1)[C@H]2C(=O)Nc1cc(F)c2c(c1)CCC2(C)C` [Example 46, methyl cis-3-(((5R)-5-((7-fluoro-1,1-dimethyl-2,3-dihydro-1H-inden-5-yl)carbamoyl)-2-methoxy-7,8-dihydro-1,6-naphthyridin-6(5H)-yl)carbonyl)cyclobutanecarboxylate]: the inhibition at 3 µM on RORγt [1] (Jurkat) was 102%. Also, the figures for the inhibition at 1 µM on RORγt [2] (test compound 1 μM) and on RORγt [3] (test compound 1 μM) were 102% and 69%, respectively.

`CCOc1ccc2c(c1)CCN(C(=O)[C@H]1C[C@@H](CC(=O)O)C1)[C@H]2C(=O)Nc1cc(F)c(C(C)(C)COC)c(F)c1` [Example 17, (cis-3-(((1R)-1-((3,5-difluoro-4-(1-methoxy-2-methylpropan-2-yl)phenyl)carbamoyl)-6-ethoxy-3,4-dihydroisoquinolin-2(1H)-yl)carbonyl)cyclobutyl)acetic acid]: the inhibition at 3 µM at RORγt [1] (Jurkat) was 99%. Moreover, the inhibition at 1 µM at RORγt [2] (test compound 1 μM) worked out at 101%; at RORγt [3] (test compound 1 μM) it was 85%.

On to `COc1ccc2c(n1)CCN(C(=O)[C@H]1C[C@@H](C(=O)OCc3oc(=O)oc3C)C1)[C@H]2C(=O)Nc1cc(F)c2c(c1)CCC2(C)C` [Example 44, (5-methyl-2-oxo-1,3-dioxol-4-yl)methyl cis-3-(((5R)-5-((7-fluoro-1,1-dimethyl-2,3-dihydro-1H-inden-5-yl)carbamoyl)-2-methoxy-7,8-dihydro-1,6-naphthyridin-6(5H)-yl)carbonyl)cyclobutanecarboxylate], for which the inhibition at 3 µM on RORγt [1] (Jurkat) amounted to 102%. Besides, the inhibition at 1 µM was determined as 102% on RORγt [2] (test compound 1 μM) and 61% on RORγt [3] (test compound 1 μM).

Take `COc1ccc2c(c1)CCN(C(=O)C1CC1C(=O)O)[C@H]2C(=O)Nc1cc(F)c([Si](C)(C)C)c(F)c1` (single isomer, unassigned) [Example 3]: the inhibition at 3 µM at RORγt [1] is 97%. For the same compound, the inhibition at 1 µM at RORγt [2] was 102%; at RORγt [3], 84%.

Take `COc1ccc2c(c1)CCN(C(=O)[C@@H]1C[C@H]1CC(=O)O)[C@H]2C(=O)Nc1cc(F)c([Si](C)(C)C)c(F)c1` [Example 30, ((1S,2R)-2-(((1R)-1-((3,5-difluoro-4-(trimethylsilyl)phenyl)carbamoyl)-6-methoxy-3,4-dihydroisoquinolin-2(1H)-yl)carbonyl)cyclopropyl)acetic acid]: the inhibition at 3 µM at RORγt [1] worked out at 100%. Further, the inhibition at 1 µM was found to be 101% at RORγt [2] and 90% at RORγt [3].
